According to patent US20150202329A1, “Methods and Composition for Detecting Intestinal Cell-Barrier Dysfunction” (priority 2012, published 2015):
Entries after “also recorded” stand apart in the source; their conditions may differ.

Assays:
[1] = in vivo; cited from earlier work
polarized T84 monolayers = test: Caspase-1 activation and cell extrusion in nigericin-treated polarized T84 monolayers (FLICA 1 staining, Western blot); format: cell-based, human
Source text: To investigate the morphology of caspase-1-induced IEC extrusion, we applied nigericin, a well-established Nlrp3-dependent inflammasome activator to polarized T84 monolayers. […] Active caspase-1 expression in nigericin-treated T84 cells was confirmed by Western blot analysis (FIG. 1b).
(§1) T84 human colon cancer epithelial cells were maintained in tissue culture plates (10 cm) in Dulbecco's minimal essential medium (DMEM)/F-12, 10% (v/v) heat-inactivated fetal bovine serum (FBS), 1%(w/v) penicillin-streptomycin. The cells were plated onto Transwells (2×10^5 cells/well, 6.5 mm diameter; 0.4 μm-pore size; Corning Life Sciences, Tewksbury, Mass.) and grown until development of apical junctional complexes (as indicated by a transepithelial resistance of >2,000 Ω·cm^2) for studies. For caspase-1 inhibition experiment, prior to nigericin treatment, the tissue culture medium was removed and fresh medium with 50 µM caspase-1 inhibitor (Ac-YVAD-CMK) was introduced. Nigericin (10, 25, 50 µM) was added to both the apical and basolateral aspect of the Transwell. Transepithelial resistance (TER) was measured at before and 3 h after Nigericin treatment, using a Millicell-ERS Voltmeter and chopstick electrodes (Millipore, Bedford, Mass.). […]

T84 monolayers [2] = test: Trans-epithelial electrical resistance (TER) of T84 monolayers; format: cell-based, human
Source text: (§2) To determine whether this form of cell extrusion results in loss of barrier function, we measured the trans-epithelial electrical resistance (TER). […] Given that the breach in the T84 monolayers appeared to be 1-2 μm in diameter on TEM images, we evaluated the epithelial integrity to microparticles (1 μm Fluoresbrite® Microspheres) and microbes (E. coli […]) using the lowest dose of nigericin treatment. […] Fluoresbrite microspheres and E. coli TMW2.497 were recovered in the media from basolateral well.
T84 human colon cancer epithelial cells were maintained in tissue culture plates (10 cm) in Dulbecco's minimal essential medium (DMEM)/F-12, 10% (v/v) heat-inactivated fetal bovine serum (FBS), 1%(w/v) penicillin-streptomycin. The cells were plated onto Transwells (2×10^5 cells/well, 6.5 mm diameter; 0.4 μm-pore size; Corning Life Sciences, Tewksbury, Mass.) and grown until development of apical junctional complexes (as indicated by a transepithelial resistance of >2,000 Ω·cm^2) for studies. For caspase-1 inhibition experiment, prior to nigericin treatment, the tissue culture medium was removed and fresh medium with 50 µM caspase-1 inhibitor (Ac-YVAD-CMK) was introduced. Nigericin (10, 25, 50 µM) was added to both the apical and basolateral aspect of the Transwell. […] For microspheres and […] experiments, after overnight incubation with nigericin, 10^7/ml of 1 μm Microspheres or 10^9/ml E. coli TMW2.497 were added to the apical aspect of Transwell. One hour after incubation with the microspheres or E. coli, the cells were fixed in cold methanol for 5 minutes. Cells were then permeabilized in 0.2%(v/v) Triton X-100 for 15 min and blocked for one hour in PBS with 0.2% (v/v) goat serum and 1%(w/v) BSA.

T84 monolayers [3] = test: Movement of microspheres and E. coli across the T84 monolayer in Transwell; format: cell-based, human; settings: nigericin 10 μM overnight (lowest dose)
Source text: as §2
as §1, with “Nigericin (10, 25, 50 µM) was added to both the apical and basolateral aspect of the Transwell.” left out

IL-10 KO mice [4] = test: Permeation of orogavaged 0.5 μm microspheres into blood of IL-10 KO mice; format: in vivo, mouse; settings: 10 mg/kg, day 7
Protocol: (§3) To evaluate the effect of caspase-1 inhibition on IEC extrusion over time in vivo, we treated the IL-10 KO mice with a selective caspase-1 inhibitor Ac-YVAD-CMK (10 mg/kg) over 4, 7 and 10 day (5 times the mean lifespan of rodent)enterocytes^40) via intraperitoneal injections. The control IL-10 KO group received 10 days of equal volume of 2% (v/v) DMSO.
For microsphere studies, mice were gavaged with a mixture containing 10^7 Fluoresbrite® YG Microspheres with diameter of 0.5, 1.0, 2.0, 3.0, and 6.0 μm in 200 μl solution as previously described after an overnight fast. Blood samples were collected 4 hours post-administration of the beads. Whole blood mixture was then centrifuged at 1,250×g in pre-heparinized tubes for 10 min at RT, the plasma portion of the samples were removed and centrifuged at 1,250×g for 5 min before flow cytometry analysis. The remaining buffy coat and hematocrit of the samples were lysed with 5 mL of lysing buffer (4.15 g NH4Cl, 0.84 g NaHCO3, 1 ml […] EDTA at pH 8, and 500 mL of ddH2O) at RT, mixed and centrifuged at 1,250×g for 5 min at 4° C.×3. The supernatant was discarded. The WBC pellet was re-suspended in 400 μl of 0.03% PBS with Fetal Bovine Albumin. The plasma and WBC pellet samples were analyzed with flow cytometry for determination of microsphere counts.

IL-10 KO mice [5] = test: IEC extrusion measured as epithelial gap density by confocal endomicroscopy in IL-10 KO mice; format: in vivo, mouse; settings: 10 mg/kg intraperitoneal, 4, 7 and 10 days
Protocol: as §3
Confocal laser endomicroscopy of the mouse ileum and confocal microscopy of whole mount mouse intestinal tissues for determination of epithelial gap density were performed using previously described methods. Cell culture, human and mouse intestinal slides were imaged using a spinning disc confocal microscope (Quorum Technologies Inc, Guelph, ON) using previously described methods.

Compound	systemic toxicity [1]	active caspase-1 (p10) expression by Western blot (polarized T84 monolayers; nigericin 50 μM, T84 cells)	activated caspase-1 and cell extrusion by FLICA 1 staining (polarized T84 monolayers; nigericin, 3-hours post-treatment)	TER of T84 monolayers (barrier function) (T84 monolayers [2]; nigericin 10, 25, 50 μM, 3 h)	TER as measured by ECIS over time (T84 monolayers [2]; nigericin, overnight)	movement of 1 μm microspheres and E. coli TMW2.497 across the monolayer (T84 monolayers [3])	permeation of orogavaged 0.5 μm latex microspheres into blood (IL-10 KO mice [4])	IEC extrusion as epithelial gap density (IL-10 KO mice [5])	reversal of nigericin-induced TER reduction measured by ECIS (T84 monolayers [2]; nigericin 25 μM, overnight)	reversal of nigericin-induced TER reduction / barrier dysfunction (T84 monolayers [2]; pre-treatment with caspase-1 inhibitor, nigericin 25 μM, 3 hours and overnight)
CO[C@@H]1C[C@@H](C[C@H]2CC[C@H](C)[C@H]([C@@H](C)C(=O)O)O2)O[C@]2(O[C@](C)([C@H]3CC[C@@](C)([C@@H]4O[C@@H]([C@H]5O[C@@](O)(CO)[C@H](C)C[C@@H]5C)C[C@@H]4C)O3)C[C@H]2C)[C@@H]1C [nigericin, Nigericin]	significant systemic toxicity	increased active caspase-1 (p10) expression	increased activated caspase-1 and cell extrusion	dose-dependent reduction in TER; also recorded: dose-dependent barrier dysfunction developed	time-dependent reduction in TER	Movements of microspheres and E. coli from the upper chamber through the monolayer to the lower chamber of the Transwell were observed	–	–	–	–
Ac-YVAD-CMK	–	–	–	–	–	–	normalization of permeation	Time-dependent reduction in IEC extrusion	reversed	reversed; also recorded: abrogated
